From the supplement of paper PMC10307832 come the findings set out here.

Assay in all cases: relative viability (nuclei count vs DMSO), 5 days (fraction); higher = more cells survive
Compound in assay [1]: C1COCCN1C2=NC(=NC3=C2OC4=C3C=CC=N4)C5=CC(=CC=C5)NC(=O)C6=CN=C(C=C6)N + CCNC(=O)c1noc(-c2cc(C(C)C)c(O)cc2O)c1-c1ccc(CN2CCOCC2)cc1 [Luminespib] (partner 0.01 µM)
The gist of the method:
(§1)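 For relative viability, nuclei counts in treated wells were divided by those in vehicle wells. Lung cancer cell lines had been pin-tool dosed in 1536-well plates the day after seeding and cultured for 5 days, then fixed and stained in one step (final 0.05% Triton X-100, 1% formaldehyde, 1 ug/ml Hoechst) and imaged at 4×. Doses were one drug alone or a fixed anchor-drug dose plus five library-drug doses (not always all listed) in √10 steps, and values are duplicate-plate medians.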

Compound in assay [2]: C1COCCN1C2=NC(=NC3=C2OC4=C3C=CC=N4)C5=CC(=CC=C5)NC(=O)C6=CN=C(C=C6)N + Cc1nc(Nc2ncc(C(=O)Nc3c(C)cccc3Cl)s2)cc(N2CCN(CCO)CC2)n1 [Dasatinib] (partner 0.075 µM)
The gist of the method:
as §1

Compound in the assay “SGI-1776 + Navitoclax”: CN1CCC(CNc2ccc3ncc(-c4cccc(OC(F)(F)F)c4)n3n2)CC1 [SGI-1776] + CC1(C)CCC(c2ccc(Cl)cc2)=C(CN2CCN(c3ccc(C(=O)NS(=O)(=O)c4ccc(N[C@H](CCN5CCOCC5)CSc5ccccc5)c(S(=O)(=O)C(F)(F)F)c4)cc3)CC2)C1 [Navitoclax] (partner 0.5 µM)
The gist of the method:
as §1

Compound in the assay “SGI-1776 + Alpelisib”: CN1CCC(CNc2ccc3ncc(-c4cccc(OC(F)(F)F)c4)n3n2)CC1 [SGI-1776] + Cc1nc(NC(=O)N2CCC[C@H]2C(N)=O)sc1-c1ccnc(C(C)(C)C(F)(F)F)c1 [Alpelisib] (partner 2 µM)
The gist of the method:
as §1

In the case of UMC-11, the relative viability in assay [1] (first compound 0.02 µM) was 1.13; in assay [1] (first compound 0.06325 µM), 1.07; in assay [1] (first compound 0.2 µM), 1.02; in assay [1] (first compound 0.6325 µM) it was 1.07; in assay [1] (first compound 2 µM) it was 0.628; in assay [2] (first compound 0.02 µM), 0.454. Also, the relative viability in assay [2] (first compound 0.06325 µM) was found to be 0.519; in assay [2] (first compound 0.2 µM) it was 0.514; in assay [2] (first compound 0.6325 µM), 0.527; in assay [2] (first compound 2 µM), 0.266; with SGI-1776 + Navitoclax (first compound 0.08 µM), 0.265; with SGI-1776 + Navitoclax (first compound 0.8 µM), 0.32. Also, the relative viability in the assay with SGI-1776 + Navitoclax (first compound 2.53 µM) was 0.275; in the assay with SGI-1776 + Navitoclax (first compound 8 µM), 0.264; in the assay with SGI-1776 + Alpelisib (first compound 0.08 µM), 0.888; with SGI-1776 + Alpelisib (first compound 0.8 µM) it was 1; with SGI-1776 + Alpelisib (first compound 2.53 µM) it was 0.828; with SGI-1776 + Alpelisib (first compound 8 µM) it was 0.671.
